Test results from patent publication US9579358B2, “Compositions for binding to amyloid proteins” (LANCASTER UNIVERSITY BUSINESS ENTERPRISES LIMITED, priority 2011, dated 2017).
Non-standard residues stand in square brackets, D forms with d. Residues, ends and D or L forms follow the SMILES beside them.

Experiments:
[1] = system: APP/PS1 transgenic mice; test: Brain pathology after 21 days of treatment; type: in vivo; details: 100 nMol/kg i.p. once daily
Description: APPswe/PS1ΔE9 mice with a C57Bl/6 background (APP/PS1 mice) were obtained from the Jackson lab (http://research.iax.org/repository/alzheimers.html). To determine if Flu-RI-OR2-TAT crosses the blood brain barrier (Example 4), 2 male 17-months-old APP/PS1 animals and 2 16-months-old C57BL6 animals were used. To look at the effects of RI-OR2-TAT on mouse brain pathology (Example 5), 8 female 10-months-old APP/PS1 mice were used. The animals were housed in single cages in a temperature controlled holding room (21.5° C.±1) with 12:12 h light and dark cycle. Food and water was available ad libitum.
For Example 5, 4 animals were injected intraperitonially (i.p.) with 0.9% NaCl (vehicle control) and the other 4 with RI-OR2-TAT (100 nMol/Kg in 0.9% NaCl) once daily, for 21 days. On the 22nd day, the animals were perfused transcardially with ice-cold PBS and 4% paraformaldehyde and then the brains were removed and post-fixed in 4% ice cold paraformaldehyde.
All brains in paraformaldehyde were transferred to 30% sucrose overnight and then snap frozen with Envirofreez™ (Sigma, UK) and, using a Leica cryostat, 40 microns thick coronal sections were cut at anatomical regions of −2 to −3 bregma. Sections were preserved in cryoprotect with the first section taken at random and then every 5th section afterwards.
For Example 5, to stain for activated microglia, an inflammation response marker, sections were pretreated with 0.05 M sodium citrate buffer, pH 9, and incubated at 90° C. for 30 mins and stained with anti Iba-1 (1:2000 dilution, Wako 016-20001, Germany). For the oxidative stress marker, DNA denaturation was carried out with 2N HCl and the sections were stained for 8-oxo guanine (1:200 dilution, MAB3560, Millipore). Young immature neurons were detected by immunostaining for doublecortin (1:200 dilution, sc-66911, Santa Cruz Biotechnology). Total plaque load was quantified by immunostaining for β-amyloid (1:200 dilution, Invitrogen, 71-5800).
All sections were visualized using an Axio Scope 1 fluorescence microscope (Zeiss, Germany). For quantification, two images per section were taken from the cortex area with a 10× objective for 8-oxo guanine and β-amyloid staining, and a 100× objective for Iba1 staining, with a minimum of 5 sections visualized per animal. Image analysis was performed using multi threshold plug in Image J (NIH, USA).
Human oligomerised Aβ was measured using a kit purchased from Invitrogen, according to the manufacturer's instructions. Briefly, the right hemispheres from the brains of transgenic APP/PS1 mice treated with RI-OR2-TAT, or controls, were pooled separately and homogenized. Quantification of total protein was determined using the Bradford protein assay and was measured on a Nanophotometer (Implen, Germany). The homogenates were centrifuged at 100,000 g at 4° C. for 1 h. The supernatant was then diluted 1:10 before carrying out the sandwich ELISA, which measures soluble Aβ oligomer levels, but not amyloid monomers, as detailed in the manufacturer's protocol. The final AR oligomer values were determined following normalization of total protein levels.

[2] = target: T1, Aβ42 (Homo sapiens, UniProt P05067); test: Sandwich immunoassay (6E10) for Aβ oligomers; type: biochemical; details: 2:1 and 1:1 molar ratios of inhibitor:Aβ42; from 4 and 8 h
T1 construct: Recombinant Aβ42, Ultrapure, was purchased from rPeptide, Bogart, Ga., USA; purchased rPeptide, Bogart, Ga., USA
Method: These inhibitors were also tested in an immunoassay technique for the detection of early-stage Aβ oligomers. This assay uses monoclonal anti-Aβ antibody 6E10 to capture Aβ from solution and a biotinylated form of 6E10 as the detection antibody, in a sandwich system. Monomeric Aβ has only a single 6E10 epitope, which is occupied by the capture antibody, and so it cannot subsequently bind to the detection antibody. On the other hand, multimeric Aβ has binding sites available for both capture and detection, giving rise to a strong immunoassay signal. In Aβ aggregation time-course experiments, this assay produces a signal before the ThT method, when only small oligomers are present.
The sandwich immunoassay used follows the method described previously by Taylor et al (28, 30). Briefly, 96-well ELISA plates (Maxisorb) were coated with mouse monoclonal antibody 6E10 diluted 1:1000 in assay buffer (Tris-buffered saline (TBS), pH 7.4, containing 0.05% gamma globulins and 0.005% Tween 20). […] Enhancer solution was added and the plates were read using the time-resolved fluorescence setting for europium on a Wallac Victor 2 plate reader.
This is a more sensitive test than the ThT assay for the detection of early oligomeric forms of Aβ [28]. […] Enhancer solution was added and the plates were read on a Wallac Victor 2 plate reader, using the time-resolved fluorescence setting for europium.

[3] = target: T1, Aβ42; test: Atomic force microscopy of incubated Aβ42; type: biochemical; details: 1:2 molar ratio RI-OR2-TAT:Aβ42; Aβ42 25 μM, 24 h
Method: Aβ42 was incubated at 25 μM in the presence or absence of 12.5 μM RI-OR2-TAT in PBS, pH 7.4, for 24 h. Samples were diluted 1:10 in PBS and then a 2 μl aliquot was deposited onto the surface of freshly cleaned mica and allowed to dry.
Images were obtained in tapping mode using a Multimode™ SPM NanoScope IIIa microscope (Digital Instruments, New York, USA). Silicon cantilever tips measuring 125 μm long, 30 μm wide and with a tip radius <10 nm were used (Budget Sensors, Bulgaria). The resonance frequency was 300 kHz and force constants 40 Nm. All images were first order flattened and edited using WSxM 5.0 Develop 4.3 software, (Nanotech, Madrid, Spain).

T1 sequence (P05067 672-713 limits assumed): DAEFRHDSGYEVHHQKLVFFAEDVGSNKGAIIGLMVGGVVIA

Question: How did the “increase of mean number of young doublecortin-expressing neurons in the dentate region” value [1] turn out when `CC(=O)N[C@H](CCCNC(=N)N)C(=O)NCC(=O)N[C@H](Cc1ccccc1)C(=O)N[C@H](Cc1ccccc1)C(=O)N[C@@H](C(=O)N[C@H](CC(C)C)C(=O)N[C@H](CCCCN)C(=O)NCC(=O)N[C@H](CCCNC(=N)N)C(=O)N[C@H](CCCNC(=N)N)C(=O)N[C@H](CCCNC(=N)N)C(=O)N[C@H](CCCNC(=N)N)C(=O)N[C@H](CCC(N)=O)C(=O)N[C@H](CCCNC(=N)N)C(=O)N[C@H](CCCNC(=N)N)C(=O)N[C@H](CCCCN)C(=O)N[C@H](CCCCN)C(=O)N[C@H](CCCNC(=N)N)C(=O)NCC(=O)N[C@H](Cc1ccc(O)cc1)C(N)=O)C(C)C` [RI-OR2-TAT, Ac-rGffvlkGrrrrqrrkkrGy-NH2] (Ac-[dR]G[dF][dF][dV][dL][dK]G[dR][dR][dR][dR][dQ][dR][dR][dK][dK][dR]G[dY]-NH2) was run?
Answer: The value was 210%.

Question: And the “reduction of cortical level of 8-oxo-guanine immunostaining” value [1]?
Answer: Its value is 25%.

Question: And the “reduction of number of activated microglia in the cortex” value ([1]; Iba1 immunostaining)?
Answer: The value was 44%.

Question: What about the “reduction of soluble Aβ oligomer levels in the brain” value ([1]; sandwich ELISA) of the same molecule?
Answer: The value was 25%.

Question: And the “reduction of amyloid plaque load in the cortex” value ([1]; versus saline, β-amyloid immunostaining)?
Answer: Its value is 32%.

Question: What about the “development of immunoassay signal (oligomer formation)” value [2] of the same molecule?
Answer: The value was “considerably reduced”.

Question: And the “oligomer formation in AFM images” value [3]?
Answer: Its value is “clear inhibition of oligomer formation”.
